Measured values published in PubChem BioAssay AID1963986 (Molecular Pharmacology Branch, DTP, NCI, 2024).

System: 171881-019-R-J1-PDC tumor spheroid viability
Assay: Anticancer human tumor 171881-019-R-J1-PDC patient-derived invasive breast carcinoma cell line growth inhibition [PI3K]
Details: spheroids with HUVEC and MSC; for IC50: curve of first compound; for viability, T/C: stronger effect = lower value
Method in brief: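 Spheroid viability read-out. Co-cultures contained the tumor line plus HUVEC and human MSCs. Each agent was paired with a PI3K inhibitor (inavolisib, alpelisib, duvelisib, copanlisib) across half-log dilutions starting at clinical Cmax, or at 10 microM when Cmax was unknown.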

[1] = second compound 0.00316 µM, first compound 0.0316 µM
[2] = second compound 0.00316 µM, first compound 0.1 µM
[3] = second compound 0.00316 µM, first compound 0.316 µM
[4] = second compound 0.00316 µM, first compound 1 µM
[5] = second compound 0.00316 µM, first compound 3.16 µM
[6] = second compound 0.00316 µM, first compound 10 µM
[7] = second compound 0.01 µM, first compound 0.0316 µM
[8] = second compound 0.01 µM, first compound 0.1 µM
[9] = second compound 0.01 µM, first compound 0.316 µM
[10] = second compound 0.01 µM, first compound 1 µM
[11] = second compound 0.01 µM, first compound 3.16 µM
[12] = second compound 0.01 µM, first compound 10 µM
[13] = second compound 0.0316 µM, first compound 0.0316 µM
[14] = second compound 0.0316 µM, first compound 0.1 µM
[15] = second compound 0.0316 µM, first compound 0.316 µM
[16] = second compound 0.0316 µM, first compound 1 µM
[17] = second compound 0.0316 µM, first compound 3.16 µM
[18] = second compound 0.0316 µM, first compound 10 µM
[19] = second compound 0.1 µM, first compound 0.0316 µM
[20] = second compound 0.1 µM, first compound 0.1 µM
[21] = second compound 0.1 µM, first compound 0.316 µM
[22] = second compound 0.1 µM, first compound 1 µM
[23] = second compound 0.1 µM, first compound 3.16 µM
[24] = second compound 0.1 µM, first compound 10 µM
[25] = second compound 0.316 µM, first compound 0.0316 µM
[26] = second compound 0.316 µM, first compound 0.1 µM
[27] = second compound 0.316 µM, first compound 0.316 µM
[28] = second compound 0.316 µM, first compound 1 µM
[29] = second compound 0.316 µM, first compound 3.16 µM
[30] = second compound 0.316 µM, first compound 10 µM
[31] = second compound 1 µM, first compound 0.0316 µM
[32] = second compound 1 µM, first compound 0.1 µM
[33] = second compound 1 µM, first compound 0.316 µM
[34] = second compound 1 µM, first compound 1 µM
[35] = second compound 1 µM, first compound 3.16 µM
[36] = second compound 1 µM, first compound 10 µM
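Further: spheroids exposed to compound for 7 days before viability read.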
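Wherever viability, T/C is given: 100% = DMSO vehicle-treated spheroids.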

SMILES: CC(C)NCC(C(=O)N1CCN(c2ncnc3c2C(C)CC3O)CC1)c1ccc(Cl)cc1 (stereo not drawn) + CC(Nc1ccc2c(c1)OCCn1cc(N3C(=O)OCC3C(F)F)nc1-2)C(N)=O
- IC50 (second compound 0.00316 µM): 304 nM
- IC50 (second compound 0.01 µM): 275 nM
- IC50 (second compound 0.0316 µM): 65.5 nM
- IC50 (second compound 0.1 µM): < 31.6 nM
- IC50 (second compound 0.316 µM): < 31.6 nM
- IC50 (second compound 1 µM): < 31.6 nM
- viability, T/C [1]: 84%
- viability, T/C [2]: 70%
- viability, T/C [3]: 50.4%
- viability, T/C [4]: 26.5%
- viability, T/C [5]: 13.8%
- viability, T/C [6]: 9.57%
- viability, T/C [7]: 64.8%
- viability, T/C [8]: 69%
- viability, T/C [9]: 45.6%
- viability, T/C [10]: 24.4%
- viability, T/C [11]: 13.4%
- viability, T/C [12]: 9.59%
- viability, T/C [13]: 52%
- viability, T/C [14]: 48.9%
- viability, T/C [15]: 38.6%
- viability, T/C [16]: 22.3%
- viability, T/C [17]: 12.2%
- viability, T/C [18]: 8.08%
- viability, T/C [19]: 35.4%
- viability, T/C [20]: 35.5%
- viability, T/C [21]: 31.3%
- viability, T/C [22]: 19.5%
- viability, T/C [23]: 11.7%
- viability, T/C [24]: 7.31%
- viability, T/C [25]: 27.1%
- viability, T/C [26]: 23.8%
- viability, T/C [27]: 23.5%
- viability, T/C [28]: 16.4%
- viability, T/C [29]: 10.8%
- viability, T/C [30]: 7.4%
- viability, T/C [31]: 20.5%
- viability, T/C [32]: 20%
- viability, T/C [33]: 19.1%
- viability, T/C [34]: 13.5%
- viability, T/C [35]: 9.24%
- viability, T/C [36]: 7.07%

SMILES: CCN1CCN(Cc2ccc(Nc3ncc(F)c(-c4cc(F)c5nc(C)n(C(C)C)c5c4)n3)nc2)CC1 + CC(Nc1ccc2c(c1)OCCn1cc(N3C(=O)OCC3C(F)F)nc1-2)C(N)=O
- IC50 (second compound 0.00316 µM): > 1000 nM
- IC50 (second compound 0.01 µM): > 1000 nM
- IC50 (second compound 0.0316 µM): > 1000 nM
- IC50 (second compound 0.1 µM): < 3.16 nM
- IC50 (second compound 0.316 µM): < 3.16 nM
- IC50 (second compound 1 µM): < 3.16 nM
- viability, T/C (second compound 0.00316 µM, first compound 0.00316 µM): 87%
- viability, T/C (second compound 0.00316 µM, first compound 0.01 µM): 95.7%
- viability, T/C [1]: 108%
- viability, T/C [2]: 106%
- viability, T/C [3]: 120%
- viability, T/C [4]: 122%
- viability, T/C (second compound 0.01 µM, first compound 0.00316 µM): 82.5%
- viability, T/C (second compound 0.01 µM, first compound 0.01 µM): 77.5%
- viability, T/C [7]: 85.9%
- viability, T/C [8]: 84.9%
- viability, T/C [9]: 95.7%
- viability, T/C [10]: 109%
- viability, T/C (second compound 0.0316 µM, first compound 0.00316 µM): 58%
- viability, T/C (second compound 0.0316 µM, first compound 0.01 µM): 57.3%
- viability, T/C [13]: 63.9%
- viability, T/C [14]: 64.5%
- viability, T/C [15]: 80.8%
- viability, T/C [16]: 80.1%
- viability, T/C (second compound 0.1 µM, first compound 0.00316 µM): 40%
- viability, T/C (second compound 0.1 µM, first compound 0.01 µM): 38.3%
- viability, T/C [19]: 47.2%
- viability, T/C [20]: 48.2%
- viability, T/C [21]: 63%
- viability, T/C [22]: 70.2%
- viability, T/C (second compound 0.316 µM, first compound 0.00316 µM): 27.6%
- viability, T/C (second compound 0.316 µM, first compound 0.01 µM): 24.9%
- viability, T/C [25]: 33.1%
- viability, T/C [26]: 39.4%
- viability, T/C [27]: 46.4%
- viability, T/C [28]: 55.6%
- viability, T/C (second compound 1 µM, first compound 0.00316 µM): 23.1%
- viability, T/C (second compound 1 µM, first compound 0.01 µM): 20.7%
- viability, T/C [31]: 26.6%
- viability, T/C [32]: 28.5%
- viability, T/C [33]: 36.4%
- viability, T/C [34]: 50.1%

SMILES: Cn1ncc(Cl)c1-c1cc(C(=O)NC(CN)Cc2cccc(F)c2)sc1Cl (stereo not drawn) + CC(Nc1ccc2c(c1)OCCn1cc(N3C(=O)OCC3C(F)F)nc1-2)C(N)=O
- IC50 (second compound 0.00316 µM): 149 nM
- IC50 (second compound 0.01 µM): 134 nM
- IC50 (second compound 0.0316 µM): 54.2 nM
- IC50 (second compound 0.1 µM): < 31.6 nM
- IC50 (second compound 0.316 µM): < 31.6 nM
- IC50 (second compound 1 µM): < 31.6 nM
- viability, T/C [1]: 70%
- viability, T/C [2]: 59.1%
- viability, T/C [3]: 34.8%
- viability, T/C [4]: 21.2%
- viability, T/C [5]: 12.9%
- viability, T/C [6]: 4.9%
- viability, T/C [7]: 64.1%
- viability, T/C [8]: 58.1%
- viability, T/C [9]: 31.4%
- viability, T/C [10]: 17.3%
- viability, T/C [11]: 12.5%
- viability, T/C [12]: 4.16%
- viability, T/C [13]: 53.6%
- viability, T/C [14]: 46.4%
- viability, T/C [15]: 29.3%
- viability, T/C [16]: 15.6%
- viability, T/C [17]: 11.4%
- viability, T/C [18]: 4.17%
- viability, T/C [19]: 40.4%
- viability, T/C [20]: 33.5%
- viability, T/C [21]: 24.6%
- viability, T/C [22]: 15.1%
- viability, T/C [23]: 10.2%
- viability, T/C [24]: 4.94%
- viability, T/C [25]: 27.2%
- viability, T/C [26]: 26.3%
- viability, T/C [27]: 18.1%
- viability, T/C [28]: 14.6%
- viability, T/C [29]: 9.75%
- viability, T/C [30]: 4.08%
- viability, T/C [31]: 20.2%
- viability, T/C [32]: 18.1%
- viability, T/C [33]: 16.4%
- viability, T/C [34]: 12.9%
- viability, T/C [35]: 8.94%
- viability, T/C [36]: 3.85%

SMILES: Cn1nccc1Nc1nccc(-c2ccn(C(CO)c3ccc(Cl)c(F)c3)c(=O)c2)n1 (stereo not drawn) + CC(Nc1ccc2c(c1)OCCn1cc(N3C(=O)OCC3C(F)F)nc1-2)C(N)=O
- IC50 (second compound 0.00316 µM): 265 nM
- IC50 (second compound 0.01 µM): 113 nM
- IC50 (second compound 0.0316 µM): < 31.6 nM
- IC50 (second compound 0.1 µM): < 31.6 nM
- IC50 (second compound 0.316 µM): < 31.6 nM
- IC50 (second compound 1 µM): < 31.6 nM
- viability, T/C [1]: 92.5%
- viability, T/C [2]: 67.2%
- viability, T/C [3]: 46.7%
- viability, T/C [4]: 33.7%
- viability, T/C [5]: 22%
- viability, T/C [6]: 19.2%
- viability, T/C [7]: 69.6%
- viability, T/C [8]: 53.9%
- viability, T/C [9]: 30.6%
- viability, T/C [10]: 27.4%
- viability, T/C [11]: 18.2%
- viability, T/C [12]: 15%
- viability, T/C [13]: 47.4%
- viability, T/C [14]: 37.9%
- viability, T/C [15]: 23.1%
- viability, T/C [16]: 17.1%
- viability, T/C [17]: 11.8%
- viability, T/C [18]: 9.67%
- viability, T/C [19]: 33.5%
- viability, T/C [20]: 23.3%
- viability, T/C [21]: 15.9%
- viability, T/C [22]: 9.87%
- viability, T/C [23]: 7.9%
- viability, T/C [24]: 5.46%
- viability, T/C [25]: 21.6%
- viability, T/C [26]: 16.9%
- viability, T/C [27]: 10.6%
- viability, T/C [28]: 6.63%
- viability, T/C [29]: 4.45%
- viability, T/C [30]: 2.82%
- viability, T/C [31]: 18.3%
- viability, T/C [32]: 13.9%
- viability, T/C [33]: 7.66%
- viability, T/C [34]: 4.72%
- viability, T/C [35]: 3.76%
- viability, T/C [36]: 2.26%
